What was measured:
[1] = target: T1, 5-hydroxytryptamine receptor 2B (Homo sapiens, UniProt P41595); assay: Displacement of [125I](+/-)DOI from human recombinant 5-HT2B receptor expressed in CHO cells after 60 mins by scintillation counting; type: cell-based
[2] = system: SW480; assay: Growth inhibition of human SW480 cells assessed as cell death at 25 uM after 72 hrs by MTT assay relative to control; type: functional; set-up: scale not given: the % may be the effect or the level left
[3] = system: NCI-H460; assay: Growth inhibition of human NCI-H460 cells assessed as cell death at 25 uM after 72 hrs by MTT assay relative to control; type: functional; set-up: scale not given: the % may be the effect or the level left
[4] = system: A-431; assay: Growth inhibition of human A431 cells assessed as cell death at 25 uM after 72 hrs by MTT assay relative to control; type: functional; set-up: scale not given: the % may be the effect or the level left
[5] = system: MIA PaCa-2; assay: Growth inhibition of human MIAPaCa2 cells assessed as cell death at 25 uM after 72 hrs by MTT assay relative to control; type: functional; set-up: scale not given: the % may be the effect or the level left
[6] = Growth inhibition of human SMA cells assessed as cell death at 25 uM after 72 hrs by MTT assay relative to control; type: functional; set-up: scale not given: the % may be the effect or the level left
[7] = system: BE(2)-C; assay: Growth inhibition of human BE(2)-C cells assessed as cell death at 25 uM after 72 hrs by MTT assay relative to control; type: functional; set-up: scale not given: the % may be the effect or the level left
[8] = Inhibition of phosphatidyl serine liposome-stimulated sheep brain dynamin 1 GTPase activity assessed as reduction orthophosphate release using GTP as substrate after 30 mins by malachite green reagent based colorimetric assay; set-up: species or system Ovis aries; settings: read-out: IC50
[9] = system: A2780; assay: Growth inhibition of human A2780 cells assessed as cell death at 25 uM after 72 hrs by MTT assay relative to control; type: functional; set-up: scale not given: the % may be the effect or the level left
[10] = Growth inhibition of human SJ-G2 cells assessed as cell death at 25 uM after 72 hrs by MTT assay relative to control; type: functional; set-up: scale not given: the % may be the effect or the level left
[11] = system: HT-29; assay: Growth inhibition of human HT-29 cells assessed as cell death at 25 uM after 72 hrs by MTT assay relative to control; type: functional; set-up: scale not given: the % may be the effect or the level left
[12] = Growth inhibition of human U87 cells assessed as cell death at 25 uM after 72 hrs by MTT assay relative to control; type: functional, U-87MG ATCC; set-up: scale not given: the % may be the effect or the level left
[13] = system: DU-145; assay: Growth inhibition of human DU145 cells assessed as cell death at 25 uM after 72 hrs by MTT assay relative to control; type: functional; set-up: scale not given: the % may be the effect or the level left
[14] = system: MCF7; assay: Growth inhibition of human MCF7 cells assessed as cell death at 25 uM after 72 hrs by MTT assay relative to control; type: functional; set-up: scale not given: the % may be the effect or the level left
[15] = target: Substance-K receptor (Homo sapiens) (UniProt P21452); assay: Displacement of [125I]NKA from human recombinant tachykinin NK2 receptor expressed in CHO cells at 10 uM after 60 mins by scintillation counting relative to control; type: cell-based; settings: values are per cent of control
Substance-K receptor (Homo sapiens), sequence (P21452 whole entry): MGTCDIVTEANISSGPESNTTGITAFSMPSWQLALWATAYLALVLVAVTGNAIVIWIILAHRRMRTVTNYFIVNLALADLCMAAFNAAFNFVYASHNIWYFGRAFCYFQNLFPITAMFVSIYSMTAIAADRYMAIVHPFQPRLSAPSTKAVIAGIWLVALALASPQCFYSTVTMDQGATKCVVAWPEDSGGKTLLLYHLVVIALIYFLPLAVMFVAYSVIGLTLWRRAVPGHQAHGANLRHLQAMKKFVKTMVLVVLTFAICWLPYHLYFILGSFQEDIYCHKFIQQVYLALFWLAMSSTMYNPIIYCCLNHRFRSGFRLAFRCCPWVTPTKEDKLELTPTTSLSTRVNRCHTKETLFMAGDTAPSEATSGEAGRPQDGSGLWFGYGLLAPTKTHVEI

[16] = target: Melanocortin receptor 4 (Homo sapiens) (UniProt P32245); assay: Inhibition of human recombinant melanocortin 4 receptor expressed in CHO cells at 10 uM relative to control; type: cell-based; settings: values are per cent of control
Melanocortin receptor 4 (Homo sapiens), sequence (P32245 whole entry): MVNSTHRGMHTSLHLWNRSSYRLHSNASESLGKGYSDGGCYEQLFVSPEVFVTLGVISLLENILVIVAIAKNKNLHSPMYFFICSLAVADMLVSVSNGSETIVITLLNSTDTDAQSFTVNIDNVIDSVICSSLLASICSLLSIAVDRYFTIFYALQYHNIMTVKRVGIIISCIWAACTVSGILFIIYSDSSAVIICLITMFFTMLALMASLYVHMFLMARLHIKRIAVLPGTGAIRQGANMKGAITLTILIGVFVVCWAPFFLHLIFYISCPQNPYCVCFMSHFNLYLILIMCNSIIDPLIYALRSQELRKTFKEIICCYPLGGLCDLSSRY

[17] = target: Muscarinic acetylcholine receptor M1 (Homo sapiens) (UniProt P11229); assay: Displacement of [3H]pirenzepine from human recombinant Muscarinic acetylcholine receptor M1 expressed in CHO cells at 10 uM after 60 mins by scintillation counting relative to control; type: cell-based; settings: values are per cent of control
Muscarinic acetylcholine receptor M1 (Homo sapiens), sequence (P11229 whole entry): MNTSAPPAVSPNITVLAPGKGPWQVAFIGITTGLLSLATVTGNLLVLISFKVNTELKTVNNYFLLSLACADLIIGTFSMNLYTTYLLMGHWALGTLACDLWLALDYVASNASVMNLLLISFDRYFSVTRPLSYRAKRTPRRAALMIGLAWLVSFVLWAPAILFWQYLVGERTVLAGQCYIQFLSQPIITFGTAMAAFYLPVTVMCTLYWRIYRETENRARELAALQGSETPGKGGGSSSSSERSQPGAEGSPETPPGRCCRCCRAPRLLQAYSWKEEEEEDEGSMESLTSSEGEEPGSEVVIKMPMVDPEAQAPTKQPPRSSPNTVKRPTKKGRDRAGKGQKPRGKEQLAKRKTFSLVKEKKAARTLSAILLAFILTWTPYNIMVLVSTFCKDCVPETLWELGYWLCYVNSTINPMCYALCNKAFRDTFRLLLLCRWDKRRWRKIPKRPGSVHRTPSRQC

[18] = system: SW480; assay: Growth inhibition of human SW480 cells after 72 hrs by MTT assay; type: functional; settings: SW480, 72 h
[19] = target: Muscarinic acetylcholine receptor M3 (Homo sapiens) (UniProt P20309); assay: Displacement of [3H]4-DAMP from human recombinant Muscarinic acetylcholine receptor M3 expressed in CHO cells at 10 uM after 60 mins by scintillation counting relative to control; type: cell-based; settings: values are per cent of control
Muscarinic acetylcholine receptor M3 (Homo sapiens), sequence (P20309 whole entry, looked up): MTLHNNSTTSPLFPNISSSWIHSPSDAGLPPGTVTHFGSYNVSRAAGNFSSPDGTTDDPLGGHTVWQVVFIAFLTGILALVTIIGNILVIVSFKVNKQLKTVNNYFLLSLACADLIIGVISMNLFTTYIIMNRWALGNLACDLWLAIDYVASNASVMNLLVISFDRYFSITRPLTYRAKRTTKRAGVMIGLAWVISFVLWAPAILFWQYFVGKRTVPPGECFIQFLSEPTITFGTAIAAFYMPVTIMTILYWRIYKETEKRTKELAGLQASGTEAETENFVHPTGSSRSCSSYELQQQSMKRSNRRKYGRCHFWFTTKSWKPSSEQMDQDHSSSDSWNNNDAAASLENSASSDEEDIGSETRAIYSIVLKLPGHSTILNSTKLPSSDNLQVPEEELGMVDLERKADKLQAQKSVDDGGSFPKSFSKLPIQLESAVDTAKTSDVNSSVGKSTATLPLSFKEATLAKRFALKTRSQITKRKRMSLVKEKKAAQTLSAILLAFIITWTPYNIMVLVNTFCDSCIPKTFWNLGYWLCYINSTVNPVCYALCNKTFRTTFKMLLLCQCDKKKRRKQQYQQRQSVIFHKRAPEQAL

[20] = system: BE(2)-C; assay: Growth inhibition of human BE(2)-C cells after 72 hrs by MTT assay; type: functional
[21] = target: Sodium-dependent dopamine transporter (Homo sapiens) (UniProt Q01959); assay: Displacement of [3H]BTCP from human recombinant dopamine transporter expressed in CHO cells at 10 uM after 120 mins by scintillation counting relative to control; type: cell-based; settings: values are per cent of control
Sodium-dependent dopamine transporter (Homo sapiens), sequence (Q01959 whole entry): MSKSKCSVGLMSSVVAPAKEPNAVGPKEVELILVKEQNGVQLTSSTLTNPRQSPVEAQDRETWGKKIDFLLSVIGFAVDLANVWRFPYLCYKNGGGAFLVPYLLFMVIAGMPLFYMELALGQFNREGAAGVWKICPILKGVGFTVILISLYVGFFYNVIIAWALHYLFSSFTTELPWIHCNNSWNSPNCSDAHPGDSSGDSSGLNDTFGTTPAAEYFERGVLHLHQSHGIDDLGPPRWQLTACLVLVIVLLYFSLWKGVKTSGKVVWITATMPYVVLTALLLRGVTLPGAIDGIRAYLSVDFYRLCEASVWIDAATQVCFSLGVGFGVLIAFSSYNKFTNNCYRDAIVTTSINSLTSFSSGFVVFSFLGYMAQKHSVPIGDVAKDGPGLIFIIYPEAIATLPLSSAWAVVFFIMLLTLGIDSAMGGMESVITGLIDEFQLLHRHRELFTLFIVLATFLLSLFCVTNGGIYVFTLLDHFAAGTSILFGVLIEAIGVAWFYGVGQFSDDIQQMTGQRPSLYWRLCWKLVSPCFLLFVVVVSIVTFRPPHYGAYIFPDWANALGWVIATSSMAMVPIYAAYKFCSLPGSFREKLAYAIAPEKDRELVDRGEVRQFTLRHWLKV

[22] = target: Sodium-dependent noradrenaline transporter (Homo sapiens) (UniProt P23975); assay: Displacement of [3H]nisoxetine from human recombinant norepinephrine transporter expressed in CHO cells at 10 uM after 120 mins by scintillation counting relative to control; type: cell-based; settings: values are per cent of control
[23] = system: NCI-H460; assay: Growth inhibition of human NCI-H460 cells after 72 hrs by MTT assay; type: functional; settings: NCI-H460, 72 h
[24] = target: D(2) dopamine receptor (Homo sapiens) (UniProt P14416); assay: Displacement of [3H]methyl-spiperone from human recombinant D2S receptor in HEK293 cells at 10 uM after 60 mins by scintillation counting relative to control; type: cell-based; settings: values are per cent of control
[25] = system: MCF7; assay: Growth inhibition of human MCF7 cells after 72 hrs by MTT assay; type: functional; settings: MCF7, 72 h
[26] = target: T1, 5-hydroxytryptamine receptor 2B; assay: Displacement of [125I](+/-)DOI from human recombinant 5-HT2B receptor expressed in CHO cells at 10 uM after 60 mins by scintillation counting relative to control; type: cell-based; settings: values are per cent of control
[27] = target: 5-hydroxytryptamine receptor 7 (Homo sapiens) (UniProt P34969); assay: Displacement of [3H]LSD from human recombinant 5-HT7 receptor expressed in CHO cells at 10 uM after 120 mins by scintillation counting relative to control; type: cell-based; settings: values are per cent of control
5-hydroxytryptamine receptor 7 (Homo sapiens), sequence (P34969 whole entry): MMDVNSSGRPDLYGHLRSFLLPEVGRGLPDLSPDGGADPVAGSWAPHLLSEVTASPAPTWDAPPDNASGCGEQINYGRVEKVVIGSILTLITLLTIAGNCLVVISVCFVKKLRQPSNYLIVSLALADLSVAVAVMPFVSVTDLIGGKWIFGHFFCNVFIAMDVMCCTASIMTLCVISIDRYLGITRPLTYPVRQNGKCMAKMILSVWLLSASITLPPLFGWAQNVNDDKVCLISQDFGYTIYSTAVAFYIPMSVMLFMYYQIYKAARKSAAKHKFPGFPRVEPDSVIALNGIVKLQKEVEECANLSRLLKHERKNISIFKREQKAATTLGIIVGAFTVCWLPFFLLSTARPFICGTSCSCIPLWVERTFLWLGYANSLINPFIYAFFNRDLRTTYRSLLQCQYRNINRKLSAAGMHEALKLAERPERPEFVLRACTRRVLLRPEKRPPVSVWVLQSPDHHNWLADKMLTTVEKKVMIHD

[28] = target: Histamine H2 receptor (Homo sapiens) (UniProt P25021); assay: Displacement of [125I]APT from human recombinant histamine H2 receptor expressed in CHO cells at 10 uM after 120 mins by scintillation counting relative to control; type: cell-based; settings: values are per cent of control
Histamine H2 receptor (Homo sapiens), sequence (P25021 whole entry): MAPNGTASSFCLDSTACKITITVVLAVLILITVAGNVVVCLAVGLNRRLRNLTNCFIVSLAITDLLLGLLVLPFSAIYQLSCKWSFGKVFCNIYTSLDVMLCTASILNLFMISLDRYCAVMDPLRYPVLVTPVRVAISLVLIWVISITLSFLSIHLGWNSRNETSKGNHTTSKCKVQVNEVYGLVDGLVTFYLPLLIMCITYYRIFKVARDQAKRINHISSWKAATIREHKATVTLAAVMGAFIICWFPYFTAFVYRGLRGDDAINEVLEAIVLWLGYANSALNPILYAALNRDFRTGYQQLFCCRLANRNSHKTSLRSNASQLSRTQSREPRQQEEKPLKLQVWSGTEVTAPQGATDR

[29] = Growth inhibition of human SMA cells after 72 hrs by MTT assay; type: functional
[30] = target: 5-hydroxytryptamine receptor 6 (Homo sapiens) (UniProt P50406); assay: Displacement of [3H]LSD from human recombinant 5-HT6 receptor expressed in CHO cells at 10 uM after 120 mins by scintillation counting relative to control; type: cell-based; settings: values are per cent of control
5-hydroxytryptamine receptor 6 (Homo sapiens), sequence (P50406 whole entry): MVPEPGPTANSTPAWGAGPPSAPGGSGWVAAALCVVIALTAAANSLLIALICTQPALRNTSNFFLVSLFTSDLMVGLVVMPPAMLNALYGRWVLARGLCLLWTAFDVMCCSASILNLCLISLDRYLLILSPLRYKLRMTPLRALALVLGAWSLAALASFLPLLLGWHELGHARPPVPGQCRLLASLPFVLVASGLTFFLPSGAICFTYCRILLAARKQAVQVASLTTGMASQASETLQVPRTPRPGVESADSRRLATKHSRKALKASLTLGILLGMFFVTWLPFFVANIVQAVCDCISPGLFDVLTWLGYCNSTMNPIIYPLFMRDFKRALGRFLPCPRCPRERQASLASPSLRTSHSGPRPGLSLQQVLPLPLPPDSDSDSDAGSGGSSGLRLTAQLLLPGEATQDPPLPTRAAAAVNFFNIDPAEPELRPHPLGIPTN

[31] = system: MIA PaCa-2; assay: Growth inhibition of human MIAPaCa2 cells after 72 hrs by MTT assay; type: functional; settings: MIA PaCa-2, 72 h
[32] = system: A2780; assay: Growth inhibition of human A2780 cells after 72 hrs by MTT assay; type: functional; settings: A2780, 72 h
[33] = system: DU-145; assay: Growth inhibition of human DU145 cells after 72 hrs by MTT assay; type: functional; settings: DU-145, 72 h
[34] = system: A-431; assay: Growth inhibition of human A431 cells after 72 hrs by MTT assay; type: functional; settings: A-431, 72 h
[35] = Growth inhibition of human U87 cells after 72 hrs by MTT assay; type: functional, U-87MG ATCC; settings: U-87 MG
[36] = target: 5-hydroxytryptamine receptor 2A (Homo sapiens) (UniProt P28223); assay: Displacement of [3H]ketanserin from human recombinant 5-HT2A receptor in HEK293 cells at 10 uM after 60 mins by scintillation counting relative to control; type: cell-based; settings: values are per cent of control
[37] = Growth inhibition of human SJ-G2 cells after 72 hrs by MTT assay; type: functional; settings: SJ-G2, 72 h
[38] = target: Histamine H1 receptor (Homo sapiens) (UniProt P35367); assay: Displacement of [3H]pyrilamine from human recombinant histamine H1 receptor in HEK293 cells at 10 uM after 60 mins by scintillation counting relative to control; type: cell-based; settings: values are per cent of control
Histamine H1 receptor (Homo sapiens), sequence (P35367 whole entry): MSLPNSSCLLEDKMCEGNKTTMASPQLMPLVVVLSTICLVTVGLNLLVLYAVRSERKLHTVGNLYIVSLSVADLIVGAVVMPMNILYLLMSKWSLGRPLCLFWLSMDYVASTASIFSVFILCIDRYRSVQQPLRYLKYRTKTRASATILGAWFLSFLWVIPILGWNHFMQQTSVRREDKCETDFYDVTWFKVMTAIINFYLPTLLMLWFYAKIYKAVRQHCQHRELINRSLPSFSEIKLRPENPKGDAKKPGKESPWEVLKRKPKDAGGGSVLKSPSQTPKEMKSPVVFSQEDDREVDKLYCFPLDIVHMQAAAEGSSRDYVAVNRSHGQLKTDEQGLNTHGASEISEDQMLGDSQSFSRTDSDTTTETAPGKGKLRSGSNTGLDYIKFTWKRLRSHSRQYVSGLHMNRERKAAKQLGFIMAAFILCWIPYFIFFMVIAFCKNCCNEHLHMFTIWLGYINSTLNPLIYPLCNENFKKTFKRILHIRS

[39] = target: Kappa-type opioid receptor (Rattus norvegicus) (UniProt P34975); assay: Displacement of [3H]U 69593 from rat recombinant kappa opioid receptor expressed in CHO cells at 10 uM after 60 mins by scintillation counting relative to control; type: cell-based; settings: values are per cent of control
[40] = system: HT-29; assay: Growth inhibition of human HT-29 cells after 72 hrs by MTT assay; type: functional; settings: HT-29, 72 h
[41] = target: 5-hydroxytryptamine receptor 5A (Homo sapiens) (UniProt P47898); assay: Displacement of [3H]LSD from human recombinant 5-HT5a receptor in HEK293 cells at 10 uM after 120 mins by scintillation counting relative to control; type: cell-based; settings: values are per cent of control

T1 sequence (P41595 whole entry): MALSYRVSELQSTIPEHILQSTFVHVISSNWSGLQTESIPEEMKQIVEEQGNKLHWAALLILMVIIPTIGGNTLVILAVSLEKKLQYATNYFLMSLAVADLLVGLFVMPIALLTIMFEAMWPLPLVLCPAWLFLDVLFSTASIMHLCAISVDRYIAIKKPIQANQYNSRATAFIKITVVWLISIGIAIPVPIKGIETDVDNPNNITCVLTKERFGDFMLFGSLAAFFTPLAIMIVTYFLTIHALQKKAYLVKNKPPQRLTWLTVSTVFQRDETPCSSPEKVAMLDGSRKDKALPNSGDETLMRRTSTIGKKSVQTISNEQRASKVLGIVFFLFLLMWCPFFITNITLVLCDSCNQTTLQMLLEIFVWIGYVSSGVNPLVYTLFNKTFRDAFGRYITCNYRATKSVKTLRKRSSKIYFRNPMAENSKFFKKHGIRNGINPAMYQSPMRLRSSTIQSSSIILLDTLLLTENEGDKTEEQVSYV

Work on `COc1cc(CC(C)N)c(OC)cc1I` (racemic) yielded a Ki [1] of 1.6 nM.
Compound `CCCCCCCCCCCCNc1nc(C)cc(Cl)n1` has an Activity [2] of 37%, an Activity [3] of 21% and an Activity [4] of 25%. The Activity [5] was 42%, the Activity [6] was 65% and the Activity [7] was 46%. For the same compound, the IC50 [8] was > 300000 nM, the Activity [9] was 63% and the Activity [10] was 25%. It also gave an Activity [11] of 56%, an Activity [12] of 21% and an Activity [13] of 42%. The Activity [14] was 53%.
`CCCCCCCCCCCCNc1nc(C)cc(NCCN(C)C)n1` gave a residual binding, % of control [15] of 93%, a residual binding, % of control [16] of 96% and a residual binding, % of control [17] of 91%. It also gave a GI50 [18] of 800 nM, a residual binding, % of control [19] of 104% and a GI50 [20] of 1500 nM. It also gave a residual binding, % of control [21] of 105%, a residual binding, % of control [22] of 96% and a GI50 [23] of 2500 nM. For the same compound, the residual binding, % of control [24] was 99%, the GI50 [25] was 1500 nM and the residual binding, % of control [26] was 94%. For the same compound, the IC50 [8] was 1400 nM, the residual binding, % of control [27] was 98% and the residual binding, % of control [28] was 106%. The GI50 [29] was 1300 nM, the residual binding, % of control [30] was 91% and the GI50 [31] was 1500 nM. It also gave a GI50 [32] of 1800 nM, a GI50 [33] of 1900 nM and a GI50 [34] of 1700 nM. It also gave a GI50 [35] of 1500 nM, a residual binding, % of control [36] of 93% and a GI50 [37] of 1500 nM. For the same compound, the residual binding, % of control [38] was 102%, the residual binding, % of control [39] was 97% and the GI50 [40] was 1400 nM. The residual binding, % of control [41] was 99%.

Reference: ChEMBL document CHEMBL4000185, “Pyrimidine-Based Inhibitors of Dynamin I GTPase Activity: Competitive Inhibition at the Pleckstrin Homology Domain” (J Med Chem, 2017)
